Assay results published in patent US9730970B2, “Seaweed extracts, unsaturated aldehydes, and methods of treatment” (University of Florida Research Foundation, Inc., priority 2013, dated 2017).

System: NQO1
Assay: qPCR of NQO1 transcription in IMR-32 cells
Format: cell-based, human
Method: IMR-32 cells (1×10^6 cells/well) were seeded in 6-well plates one day before treatment. Cells were treated with variable concentrations of purified compounds 1-4 for 12 h. Total RNA was extracted with the RNeasy Mini Kit (Qiagen). cDNA was synthesized from 2 μg of total RNA by using SuperScript II Reverse Transcriptase (Invitrogen) and Oligo(dT)12-18 primer (Invitrogen). Real-time PCR was performed in triplicate using GAPDH expression as internal control for normalization.

CC(C)(C)c1cc(O)ccc1O [tBHQ, Tert-butylhydroquinone]
activation of NQO1 transcription (positive control under identical conditions): 5.9 fold

CCC(Cl)C(O)C(O)/C=C/C=C/C=O (centres unmarked) [Compound 4, 8-chloro-6,7-dihydroxydeca-2,4-dienal]
activation of NQO1 transcription (20 μg/mL, 12 h): 6.4 fold
